Assay results reported in PubChem BioAssay (NCI).
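Growth conditions: 96-well plates. Treatment: test compound, 48 hours, 5 concentrations. Analysis: linear interpolation between bracketing concentrations; unreached endpoints set to highest concentration. GI50 marks 50% less growth. At the TGI there is no net growth.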

Assays:
Assay in all cases: DTP human tumour cell line panel, 48 h
BT-549 breast = tested on: BT-549 breast
SN12C renal = tested on: SN12C renal
A549 NSCLC = tested on: A549 NSCLC
NCI-H460 lung = tested on: NCI-H460 lung
HS 578T breast = tested on: HS 578T breast
IGROV1 ovarian = tested on: IGROV1 ovarian
NCI-H23 lung = tested on: NCI-H23 lung
LOX IMVI melanoma = tested on: LOX IMVI melanoma
MALME-3M melanoma = tested on: MALME-3M melanoma
RPMI-8226 leukemia = tested on: RPMI-8226 leukemia
NCI/ADR-RES ovarian = tested on: NCI/ADR-RES ovarian
HCT-15 colon = tested on: HCT-15 colon
EKVX NSCLC = tested on: EKVX NSCLC
ACHN renal = tested on: ACHN renal
NCI-H226 lung = tested on: NCI-H226 lung
TK-10 renal = tested on: TK-10 renal
OVCAR-5 ovarian = tested on: OVCAR-5 ovarian
MCF7 breast = tested on: MCF7 breast
M14 melanoma = tested on: M14 melanoma
UO-31 renal = tested on: UO-31 renal
HCT-116 colon = tested on: HCT-116 colon
COLO 205 colon = tested on: COLO 205 colon
OVCAR-3 ovarian = tested on: OVCAR-3 ovarian
SK-MEL-2 melanoma = tested on: SK-MEL-2 melanoma
786-0 renal = tested on: 786-0 renal
SNB-75 CNS = tested on: SNB-75 CNS
SK-OV-3 ovarian = tested on: SK-OV-3 ovarian
KM12 colon = tested on: KM12 colon
UACC-62 melanoma = tested on: UACC-62 melanoma
SF-295 CNS = tested on: SF-295 CNS
SK-MEL-5 melanoma = tested on: SK-MEL-5 melanoma
NCI-H522 lung = tested on: NCI-H522 lung
MDA-MB-435 = tested on: MDA-MB-435
HT29 colon = tested on: HT29 colon
UACC-257 melanoma = tested on: UACC-257 melanoma
SNB-19 CNS = tested on: SNB-19 CNS
U251 CNS = tested on: U251 CNS
OVCAR-4 ovarian = tested on: OVCAR-4 ovarian
SF-268 CNS = tested on: SF-268 CNS
OVCAR-8 ovarian = tested on: OVCAR-8 ovarian
HOP-92 NSCLC = tested on: HOP-92 NSCLC
A498 renal = tested on: A498 renal
MDA-MB-231 breast = tested on: MDA-MB-231 breast
SW-620 colon = tested on: SW-620 colon
T-47D breast = tested on: T-47D breast
CAKI-1 renal = tested on: CAKI-1 renal
SF-539 CNS = tested on: SF-539 CNS
HCC-2998 colon = tested on: HCC-2998 colon
DU-145 prostate = tested on: DU-145 prostate
CCRF-CEM leukemia = tested on: CCRF-CEM leukemia
HOP-62 NSCLC = tested on: HOP-62 NSCLC
PC-3 prostate = tested on: PC-3 prostate
SK-MEL-28 melanoma = tested on: SK-MEL-28 melanoma
RXF 393 renal = tested on: RXF 393 renal
K-562 leukemia = tested on: K-562 leukemia
HL-60(TB) leukemia = tested on: HL-60(TB) leukemia
MOLT-4 leukemia = tested on: MOLT-4 leukemia

Structure (SMILES): CNS(=O)(=O)OCC1OC(n2cnc3c(N)ncnc32)C(O)C1O (configuration not stated)
- GI50 (BT-549 breast): > 100 µM
- TGI (BT-549 breast): > 100 µM
- GI50 (SN12C renal): > 100 µM
- TGI (SN12C renal): > 100 µM
- GI50 (A549 NSCLC): > 100 µM
- TGI (A549 NSCLC): > 100 µM
- GI50 (NCI-H460 lung): > 100 µM
- TGI (NCI-H460 lung): > 100 µM
- GI50 (HS 578T breast): > 100 µM
- TGI (HS 578T breast): > 100 µM
- GI50 (IGROV1 ovarian): > 100 µM
- TGI (IGROV1 ovarian): > 100 µM
- GI50 (NCI-H23 lung): > 100 µM
- TGI (NCI-H23 lung): > 100 µM
- GI50 (LOX IMVI melanoma): > 100 µM
- TGI (LOX IMVI melanoma): > 100 µM
- GI50 (MALME-3M melanoma): > 100 µM
- TGI (MALME-3M melanoma): > 100 µM
- GI50 (RPMI-8226 leukemia): > 100 µM
- TGI (RPMI-8226 leukemia): > 100 µM
- GI50 (NCI/ADR-RES ovarian): > 100 µM
- TGI (NCI/ADR-RES ovarian): > 100 µM
- GI50 (HCT-15 colon): > 100 µM
- TGI (HCT-15 colon): > 100 µM
- GI50 (EKVX NSCLC): > 100 µM
- TGI (EKVX NSCLC): > 100 µM
- GI50 (ACHN renal): > 100 µM
- TGI (ACHN renal): > 100 µM
- GI50 (NCI-H226 lung): > 100 µM
- TGI (NCI-H226 lung): > 100 µM
- GI50 (TK-10 renal): > 100 µM
- TGI (TK-10 renal): > 100 µM
- GI50 (OVCAR-5 ovarian): > 100 µM
- TGI (OVCAR-5 ovarian): > 100 µM
- GI50 (MCF7 breast): > 100 µM
- TGI (MCF7 breast): > 100 µM
- GI50 (M14 melanoma): > 100 µM
- TGI (M14 melanoma): > 100 µM
- GI50 (UO-31 renal): > 100 µM
- TGI (UO-31 renal): > 100 µM
- GI50 (HCT-116 colon): > 100 µM
- TGI (HCT-116 colon): > 100 µM
- GI50 (COLO 205 colon): > 100 µM
- TGI (COLO 205 colon): > 100 µM
- GI50 (OVCAR-3 ovarian): > 100 µM
- TGI (OVCAR-3 ovarian): > 100 µM
- GI50 (SK-MEL-2 melanoma): > 100 µM
- TGI (SK-MEL-2 melanoma): > 100 µM
- GI50 (786-0 renal): > 100 µM
- TGI (786-0 renal): > 100 µM
- GI50 (SNB-75 CNS): > 100 µM
- TGI (SNB-75 CNS): > 100 µM
- GI50 (SK-OV-3 ovarian): > 100 µM
- TGI (SK-OV-3 ovarian): > 100 µM
- GI50 (KM12 colon): > 100 µM
- TGI (KM12 colon): > 100 µM
- GI50 (UACC-62 melanoma): > 100 µM
- TGI (UACC-62 melanoma): > 100 µM
- GI50 (SF-295 CNS): > 100 µM
- TGI (SF-295 CNS): > 100 µM
- GI50 (SK-MEL-5 melanoma): > 100 µM
- TGI (SK-MEL-5 melanoma): > 100 µM
- GI50 (NCI-H522 lung): > 100 µM
- TGI (NCI-H522 lung): > 100 µM
- GI50 (MDA-MB-435): > 100 µM
- TGI (MDA-MB-435): > 100 µM
- GI50 (HT29 colon): > 100 µM
- TGI (HT29 colon): > 100 µM
- GI50 (UACC-257 melanoma): > 100 µM
- TGI (UACC-257 melanoma): > 100 µM
- GI50 (SNB-19 CNS): > 100 µM
- TGI (SNB-19 CNS): > 100 µM
- GI50 (U251 CNS): > 100 µM
- TGI (U251 CNS): > 100 µM
- GI50 (OVCAR-4 ovarian): > 100 µM
- TGI (OVCAR-4 ovarian): > 100 µM
- GI50 (SF-268 CNS): > 100 µM
- TGI (SF-268 CNS): > 100 µM
- GI50 (OVCAR-8 ovarian): > 100 µM
- TGI (OVCAR-8 ovarian): > 100 µM
- GI50 (HOP-92 NSCLC): > 100 µM
- TGI (HOP-92 NSCLC): > 100 µM
- GI50 (A498 renal): > 100 µM
- TGI (A498 renal): > 100 µM
- GI50 (MDA-MB-231 breast): > 100 µM
- TGI (MDA-MB-231 breast): > 100 µM
- GI50 (SW-620 colon): > 100 µM
- TGI (SW-620 colon): > 100 µM
- GI50 (T-47D breast): > 100 µM
- TGI (T-47D breast): > 100 µM
- GI50 (CAKI-1 renal): > 100 µM
- TGI (CAKI-1 renal): > 100 µM
- GI50 (SF-539 CNS): > 100 µM
- TGI (SF-539 CNS): > 100 µM
- GI50 (HCC-2998 colon): > 100 µM
- TGI (HCC-2998 colon): > 100 µM
- GI50 (DU-145 prostate): > 100 µM
- TGI (DU-145 prostate): > 100 µM
- GI50 (CCRF-CEM leukemia): > 100 µM
- TGI (CCRF-CEM leukemia): > 100 µM
- GI50 (HOP-62 NSCLC): > 100 µM
- TGI (HOP-62 NSCLC): > 100 µM
- GI50 (PC-3 prostate): > 100 µM
- TGI (PC-3 prostate): > 100 µM
- GI50 (SK-MEL-28 melanoma): > 100 µM
- TGI (SK-MEL-28 melanoma): > 100 µM
- GI50 (RXF 393 renal): > 100 µM
- TGI (RXF 393 renal): > 100 µM

Structure (SMILES): c1ccc2c(c1)ccn1ccc3c4ccccc4nc-3c21
- TGI (BT-549 breast): 3.82 µM
- TGI (SN12C renal): 2.1 µM
- TGI (A549 NSCLC): 1.57 µM
- TGI (HS 578T breast): 4.25 µM
- TGI (IGROV1 ovarian): 2.8 µM
- TGI (NCI-H23 lung): 2.12 µM
- TGI (LOX IMVI melanoma): 1.48 µM
- TGI (MALME-3M melanoma): 2.01 µM
- TGI (RPMI-8226 leukemia): 0.799 µM
- TGI (K-562 leukemia): 0.567 µM
- TGI (NCI/ADR-RES ovarian): 2.17 µM
- TGI (EKVX NSCLC): 1.13 µM
- TGI (ACHN renal): 1.87 µM
- TGI (NCI-H226 lung): 1.81 µM
- TGI (TK-10 renal): 4.34 µM
- TGI (OVCAR-5 ovarian): 2.36 µM
- TGI (MCF7 breast): 1.11 µM
- TGI (M14 melanoma): 1.51 µM
- TGI (UO-31 renal): 2.24 µM
- TGI (COLO 205 colon): 1.13 µM
- TGI (OVCAR-3 ovarian): 2.92 µM
- TGI (SK-MEL-2 melanoma): 2.54 µM
- TGI (786-0 renal): 1.31 µM
- TGI (SNB-75 CNS): 2.15 µM
- TGI (SK-OV-3 ovarian): 2.9 µM
- TGI (KM12 colon): 1.92 µM
- TGI (UACC-62 melanoma): 3.81 µM
- TGI (SF-295 CNS): 2.03 µM
- TGI (SK-MEL-5 melanoma): 1.71 µM
- TGI (NCI-H522 lung): 1.7 µM
- TGI (MDA-MB-435): 1.65 µM
- TGI (HT29 colon): 1.58 µM
- TGI (HL-60(TB) leukemia): 1.36 µM
- TGI (UACC-257 melanoma): 2.92 µM
- TGI (SNB-19 CNS): 3.14 µM
- TGI (U251 CNS): 1.47 µM
- TGI (OVCAR-4 ovarian): 1.75 µM
- TGI (SF-268 CNS): 2.29 µM
- TGI (OVCAR-8 ovarian): 1.78 µM
- TGI (HOP-92 NSCLC): 4.44 µM
- TGI (MOLT-4 leukemia): 0.415 µM
- TGI (A498 renal): 0.892 µM
- TGI (MDA-MB-231 breast): 2.2 µM
- TGI (SW-620 colon): 2.34 µM
- TGI (T-47D breast): 3.51 µM
- TGI (CAKI-1 renal): 2.09 µM
- TGI (SF-539 CNS): 1.48 µM
- TGI (HCC-2998 colon): 1.16 µM
- TGI (DU-145 prostate): 1.72 µM
- TGI (CCRF-CEM leukemia): 1.43 µM
- TGI (HOP-62 NSCLC): 1.85 µM
- TGI (PC-3 prostate): 1.67 µM
- TGI (SK-MEL-28 melanoma): 1.8 µM
- TGI (RXF 393 renal): 2.39 µM
